According to US6689887B2, “Inhibition of human telomerase by a G-quadruplex-interaction compound” (Board of Regents, The University of Texas System, priority 1998, dated 2004):
pIC50: −log10 of the molar value. Each block holds one compound with its values, some of them ahead of it.

How the values were obtained:
[1] = system: G-quadruplex of HT4 template (four repeats of TTAGGG); assay: DNA synthesis arrest assay with BSU-1051, HT4 template; format: biochemical, human
Method: (§1) This assay is a modification of that described by Weitzmann and co-workers (Weitzmann et al., 1996). Briefly, primers (P18, 24 nM) labeled with [γ-^32P] were mixed with template DNA (12 nM)) in a Tris-HCl buffer (10 mM Tris, pH 8.0) containing K^+ (5 mM for the PQ74 template and 50 mM for the HT4 template) and denatured by heating at 90° C. for 5 min. After cooling down to room temperature, BSU-1051 was added at various concentrations and incubated at room temperature for 15 min. The primer extension reactions were initiated by adding dNTP (final concentration 100 μM), MgCl2 (final concentration […]), and Taq DNA polymerase (2.5 U/reaction, Boehringer Mannheim). For sequencing reactions, the TaqTrack Sequencing System (Promega, Wis., Madison) was used. The sequencing reaction buffer was changed to 50 mM Tris-HCl, pH 9.0, 10 mM MgCl, and 50 mM K^+. The reactions were stopped by adding an equal volume of stop buffer (95% formamide, 10 mM EDTA, 10 mM NaOH, 0.1% xylene cyanol, 0.1% bromphenol blue). For the temperature-dependent studies, the ligand concentration was fixed and the primer extension reactions were carried out at the temperatures indicated in methods. The products were separated on a 12% polyacrylamide sequencing gel. The gels were then dried and visualized on a PhosphorImager (Molecular Dynamics model 445 S1). […]

[2] = system: G-quadruplex of PQ74 template (four repeats of TTGGGG); assay: DNA synthesis arrest assay with BSU-1051, PQ74 template; format: biochemical
Method: This assay is a modification of that described by Weitzmann and co-workers (Weitzmann et al., 1996). Briefly, primers (P18, 24 nM) labeled with [γ-^32P] were mixed with template DNA (12 nM)) in a Tris-HCl buffer (10 mM Tris, pH 8.0) containing K^+ (5 mM for the PQ74 template and 50 mM for the HT4 template) and denatured by heating at 90° C. for 5 min. After cooling down to room temperature, BSU-1051 was added at various concentrations and incubated at room temperature for 15 min. The primer extension reactions were initiated by adding dNTP (final concentration 100 μM), MgCl2 (final concentration […]), and Taq DNA polymerase (2.5 U/reaction, Boehringer Mannheim). For sequencing reactions, the TaqTrack Sequencing System (Promega, Wis., Madison) was used. The sequencing reaction buffer was changed to 50 mM Tris-HCl, pH 9.0, 10 mM MgCl, and 50 mM K^+. The reactions were stopped by adding an equal volume of stop buffer (95% formamide, 10 mM EDTA, 10 mM NaOH, 0.1% xylene cyanol, 0.1% bromphenol blue). For the temperature-dependent studies, the ligand concentration was fixed and the primer extension reactions were carried out at the temperatures indicated in methods. The products were separated on a 12% polyacrylamide sequencing gel. The gels were then dried and visualized on a PhosphorImager (Molecular Dynamics model 445 S1).
Although it has been shown that G-quadruplex structures block primer extension by DNA polymerase in a K^+ dependent manner (Weitzmann et at., 1996), the inventors are unaware of any reports showing enhanced blockage by G-quadruplex—interactive agents. To determine if BSU-1051 binding to G-quadruplex enhances the block to DNA synthesis, primer extension reactions were carried out in the absence and presence of BSU-1051. Taq DNA polymerase primer extension on DNA templates containing four repeats of either TTGGGG (SEQ ID No. 7) (PQ74) or TTAGGG (SEQ ID No. 1) (HT4) in the presence of different concentrations of BSU-1051 at 55° C. were performed. […]

[3] = system: 7-deaza-dG substituted HT4 and PQ74 templates; assay: Primer extension on 7-deaza-dG substituted templates; format: biochemical; details: BSU-1051 up to 50 μM
Method: as §1

d(TTAGGGT)4 G-quadruplex = assay: UV/VIS spectroscopy titration with G-quadruplex; format: binding, human; details: 20 μM compound, 0-80 μM quadruplex, overnight, pH 7.0
Method: (B) Compounds may be selected for their ability to interact with human DNA G-quadruplex as indicated by UV/VIS spectroscopy. To a 10 μM solution of N,N′-bis(2-dimethylaminoethyl)-3,4,9,10-perylenetetracarboxylic acid diimide in 20 mM phosphate buffer containing 100 mM KCl, pH 7.0 in a quartz cuvette was added 10 μL aliquots of a 3 mM solution of d(TTAGGGT)4 (SEQ ID No. 6). After each addition the UV/VIS spectrum was recorded.
(§2) The N,N′-bis(3-morpholinopropyl)3,4,9,10-perylenetetracarboxilic acid diimide (KeTEL01) was synthesized from 3,4,9,10-perylenetetracarboxylic acid dianhydride and 3-morpholinopropylamine using a procedure analogous to that described above in example 5.3 for the synthesis of N,N′-bis(2-piperdinoethyl)-3,4,9,10-perylenetetracarboxylic acid diimide. A solution of KeTEL01 was prepared by dissolving 1 mg of KeTEL01 in 300 μL of 1 N HCl. To this solution was added 11 mL of a pH 7.0 buffer containing 20 mM sodium phosphate, 100 mM KCl, 1 mM EDTA, and 0.02% hydroxypropyl-β-cyclodextrin. Aliquots of this stock solution of KeTEL01 were transferred to 8 different quartz cuvettes and diluted into pH 7.0 mM sodium phosphate, 100 mM KCl, 1 mM EDTA buffer to afford solutions in which the concentration of KeTEL01 was 20 μM. To each of the cuvettes was added a solution of [d(TTAGGGT)]4 (SEQ ID No. 6) so that the final concentration of [d(TTAGGGT)]4 (SEQ ID No. 6) in each of the cuvettes was 0, 4, 8, 12, 16, 20, 50, and 80 μM. These solutions were allowed to stand overnight in the dark, and the UV/VIS spectrum of each was determined. […] In a parallel study, changes in the UV/VIS spectrum of a 20 μM solution of KeTEL01 in a pH 7.0 20 mM phosphate buffer containing 100 mM KCl and 1 mM EDTA were determined upon the addition of […] aliquots of a 3 mM (base pair) solution of calf thymus DNA.

Raji = assay: MTT cytotoxicity assay, Raji; format: cell-based, human; details: 72 hours
Method: (§3) The ability of these compounds to inhibit the proliferative capacity of human cancer cells was determined by a standard MTT assay. Briefly, cells were incubated for 72 hours in the presence of various concentrations of compound, and the cell viability was determined by monitoring the formation of a colored formazan salt of the tetrazolium salt 3-(4,5-dimethylthiazol-2-yl)-2,5-diphenyl tetrazolium bromide (MTT) by viable cells.

human cancer cells = assay: MTT assay, human cancer cell lines; format: cell-based; details: 72 hours; highest concentration tested 100 μM
Method: as §3

BT-20 = assay: MTT cytotoxicity assay, BT-20; format: cell-based, human; details: BT-20, 72 hours
Method: as §3

MCF-7 = assay: MTT cytotoxicity assay, MCF-7; format: cell-based, human; details: MCF-7, 72 hours
Method: as §3

[4] = system: calf thymus DNA (double-stranded DNA); assay: UV/VIS spectroscopy with double-stranded DNA; format: binding; details: 20 μM compound, pH 7.0, 100 mM KCl
Method: as §2

PC-3 = assay: MTT cytotoxicity assay, PC-3; format: cell-based, human; details: PC-3, 72 hours
Method: as §3

[5] = system: [d(TTAGGGT)]4 G-quadruplex; assay: Kinetics of interaction with G-quadruplex DNA (absorption at 488 nm); format: binding, human; details: 5 μM compound, 50 μM quadruplex, pH 7.0
Method: A solution of 5 μM KeTEL01 in 20 mM phosphate buffer, 100 mM KCl, pH 7.0 was placed in a quartz cuvette and the UV/VIS spectrum determined. An aliquot of a solution of [d(TTAGGGT)]4 (SEQ ID No. 6) was added to the cuvette to afford a final concentration of 50 μM. The cuvette was quickly inverted several times and placed in the spectrophotometer. The absorption of the sample at 488 nm was continuously monitored for 3 hours, during which time, the absorption decreased in a multiexponential function. The time required for the absorption at 488 nm to reach one-half of its equilibrium value was 60 mm.

[6] = system: G-quadruplex in template DNA PQ74; assay: DNA Synthesis Arrest Assay (Taq polymerase primer extension, PQ74 template); format: biochemical
Method: It has been shown that DNA sequences with quadruplex-forming potential present obstacles to DNA synthesis by DNA polymerases in a K^+ dependent manner. This K^+ dependent block to DNA polymerase is a selective and sensitive indicator of the formation of intramolecular quadruplexes (Weitzmann, et al., 1996).
The assay is a modification of that described by Weitzmann, et al. Briefly, primers (24 nM, sequence: 5′-TAATACGACTCACTATAG-3′) (SEQ ID No. 9) labeled with [γ-^32P]ATP were mixed with template DNA PQ74(12 nM, sequence: […] […]-3′) (SEQ ID No. 10) in a Tris-HCl buffer (10 mM Tris, pH 8.0) containing 5 mM K^+ and heated at 90° C. for 4 mm. After cooling at room temperature for 15 mm. potential G-quadruplex-interactive compounds were then added to various concentrations. The primer extension reactions were initiated by adding dNTP (final concentration 100 μM), MgCl2 (final concentration 3 mM) and Taq polymerase (2.5 U/reaction, Boehringer Mannheim). The reactions were incubated at 55° C. for 15 mm. then stopped by adding an equal volume of stop buffer (95% formamide, 10 mM EDTA; 10 mM NaGH, 0.1% xylene cyanol. 0.1% bromophenol blue). The products were separated on a 12% polyacrylamide sequencing gel. The gels were then dried and visualized on a phosphorimager (Molecular Dynamics model 445 S1).
Using the DOCK screening methods above, the carbocyanine group of compounds were identified as potential G-quadruplex interactive agents. […] Each compound was assayed at a concentration of 20 μM.

d(TTAGGG)4 G-quadruplex = assay: NMR imino proton titration of G-quadruplex; format: binding, human; details: overall stoichiometry 1:1, 500 MHz
Method: (C) Compounds may be selected for their ability to interact with human DNA G-quadruplex as indicated by NMR spectroscopy. The imino proton spectrum (9-12 ppm) of a solution of d(TTAGGG)4 (SEQ ID No. 1) in D2O/H2O (10:90) was determined at 500 MHz. Aliquot of N,N′-bis(2-piperdinoethyl)-3,4,9,10-perylenetetracarboxylic acid diimide were added and the imino proton spectrum recorded.

telomerase = assay: Standard telomerase primer extension assay without PCR amplification; format: biochemical, human; details: at 50 μM, confirmatory tests
Method: The identified inhibitors may be used therapeutically to interfere with the function of telomerase and thus to treat cancers.
Briefly, the 18-mer telomeric primer d[TTAGGG]3 (SEQ ID No. 1) (1 μM) without or with N,N′-bis(2-dimethylaminoethyl)-3,4,9,10-perylenetetracarboxylic acid diimide was elongated with telomerase in the presence of 1.5 μM of [α-^32P]-dGTP (800 Ci mmol^−1, 10 mCi ml^−1) with 1 mM dATP and 1 mM dTTP. The extension products were isolated and visualized by autoradiography after denaturing gel electrophoresis.

- temperature up to which polymerase pausing is observed ([1]; in the presence of BSU-1051, without ligand pausing fades out at 55° C.): 65 °C
- temperature up to which polymerase pausing is observed ([2]; 20 μM BSU-1051, without ligand pausing almost lost at around 65° C.): 74 °C
- primer extension by Taq DNA polymerase ([2]; 100 μM BSU-1051, 55° C., PQ74 or HT4 template): completely inhibited
- polymerase pausing on 7-deaza-dG substituted templates [3]: no significant pausing
Compound: C[N+]1(CCC(=O)Nc2ccc3c(c2)C(=O)c2ccc(NC(=O)CC[N+]4(C)CCCCC4CO)cc2C3=O)CCCCC1CO.[I-].[I-] (stereo not drawn) [BSU-1051]
- ΔTm of G-quadruplex ([1]; 20 μM BSU-1051): about 20 °C
- ΔTm of G-quadruplex ([2]; 20 μM BSU-1051): about 20 °C

Compound: O=C1c2ccc3c4ccc5c6c(ccc(c7ccc(c2c37)C(=O)N1CCCN1CCOCC1)c64)C(=O)N(CCCN1CCOCC1)C5=O [KeTEL01, N,N′-bis(3-morpholinopropyl)3,4,9,10-perylenetetracarboxilic acid diimide]
- hyperchromicity at 510 nm (d(TTAGGGT)4 G-quadruplex): ~40%
- hyperchromicity at 548 nm (d(TTAGGGT)4 G-quadruplex): ~100%
- hypochromicity at 488 nm (d(TTAGGGT)4 G-quadruplex): ~40%
- pIC50 (Raji): < 4.00
- cytotoxic effect, MTT (human cancer cells): no cytotoxic effect
- pIC50 (BT-20): < 4.00
- pIC50 (MCF-7): < 4.00
- changes in the UV/VIS spectrum upon addition of calf thymus DNA [4]: No changes
- pIC50 (PC-3): < 4.00
- time required for absorption at 488 nm to reach one-half of its equilibrium value [5]: 60 min

Compound: O=C1c2ccc3c4ccc5c6c(ccc(c7ccc(c2c37)C(=O)N1CCN1CCCCC1)c64)C(=O)N(CCN1CCCCC1)C5=O [N,N′-bis(2-piperdinoethyl)-3,4,9,10-perylenetetracarboxylic acid diimide]
- DNA synthesis arrest (FIG. 8) ([6]; 0.5-50 μM, PQ sequence): DNA synthesis arrest
- upfield shift of G6 imino resonance (d(TTAGGG)4 G-quadruplex): > 0.2 ppm

- inhibition of telomerase (telomerase): 10-35%
- Stop (F + P)rel: relative amount of both full-length and paused products ([6]; compound 20 μM): 88%
- Stop (P/T)rel: relative ratio of paused products to total products ([6]; compound 20 μM): 139%
Compound: CCN1/C(=C/C=C/c2sc3ccccc3[n+]2CC)Sc2ccccc21.[I-] [UT-SK-002, diethylthiocarbocyanine iodide]
